# According to patent publication US8501743B2, “Personal care composition” (Conopco, Inc., priority 2007, dated 2013):
# Tests used:
# [1] = system: Malassezia furfur CBS 7019; assay: Formulation bio-efficacy (Malassezia kill) by Vitro-Skin assay; format: cell-based; conditions: FIG. 5
# Procedure: Assessment of Formulation Bio-Efficacy (Malassezia Kill) by Vitro-Skin™ Assay Formulation bio-efficacy was assessed using an in vitro substantivity assay which evaluates the effectiveness of actives in shampoo and conditioners using Malassezia furfur CBS 7019 as the organism. Malassezia furfur for the inoculation of artificial skin were initially grown in Pityrosporum Broth, and added to molten agar slurry immediately prior to the inoculation of the Vitro-Skin™ at a final concentration of 1-3×10^5 cells/ml. Vitro-Skin™ was placed onto a Modified Dixon Agar Plate (1 skin per plate), and 0.5 ml of agar slurry inoculum was gently pipetted onto the rough surface of the skin, in a film 1-2 mm deep. After the agar had gelled, the plates were placed in an incubator (32° C.) for 24 h. Following incubation, each piece of Vitro-Skin™ was carefully folded in half (inoculum on the inside) using sterile forceps, and placed a vial containing 10 ml of Butterfield's phosphate buffer (pH 7.2), 0.1% Triton X-100, 0.5% Tween and 0.08% lecithin. The vial was vortexed for 1 min (high setting), and 1 ml of this sample (10°) then added to 9 ml of 0.1% peptone (in water: 10^−1 sample). This sample was then serially diluted to 10^−5 in 0.1% peptone. For immediate controls, 0.1 ml of 10^0-10^−4 dilutions were plated onto Modified Dixon Agar Plates. For 24 h incubated samples, 0.1 ml of 10^0-10^−5 dilutions were plated onto Modified Dixon Agar Plates, and incubated at 32° C. for 4-5 days. The number of colonies on each plate were then counted, and final numbers determined by multiplying by the appropriate dilution.
# [2] = cited from earlier work
# [3] = 0.2% active alone in shampoo formula 1
smiles,measurement,setting,value
"CC(=O)N1CCN(c2ccc(OC[C@@H]3CO[C@@](Cn4ccnc4)(c4ccc(Cl)cc4Cl)O3)cc2)CC1 [ketoconazole, 1-[4-[4-[[(2S,4R)-2-(2,4-dichlorophenyl)-2-(imidazol-1-ylmethyl)-1,3-dioxolan-4-yl]methoxy]phenyl]piperazin-1-yl]ethanone]",microkill (Malassezia furfur kill),[1]; 0.1% active alone in shampoo formula 1,relatively ineffective
same,microkill (Malassezia furfur kill),[1]; [3],highly effective
same,solubility in ethanol,"[2]; ethanol, ambient temperature",soluble
same,solubility in water,[2]; water,virtually insoluble
CC1CCC(C(C)C)C(O)C1 (stereo not drawn) [menthol],microkill (Malassezia furfur kill),[1]; [3],relatively ineffective
O=C(O)c1ccccc1O [salicylic acid],microkill (Malassezia furfur kill),[1]; [3],relatively ineffective
